Where two headings read alike, the source gives them in different places.
How the values were obtained:
miR-122 [1] = experiment: Onset of action: liver ALDOA mRNA de-repression; assay type: in vivo, mice; conditions: 0.014 to 1.117 umol/kg; liver 1, 3, 7 or 14 days after administration; relative to RG2634
Description: To determine whether RG6650 and RG2634 could be distinguished by onset of action, groups of mice were treated with compound at doses ranging from 0.014 to 1.117 umol/kg. Liver tissue was collected from groups of 4 to 5 mice 1, 3, 7, or 14 days following administration. RNA was isolated and ALDOA mRNA was measured.

miR-122 [2] = experiment: In vivo potency: liver ALDOA mRNA derepression; conditions: single subcutaneous dose, liver after 7 days; for ALDOA derepression ED50 Expt #1: fold change in ALDOA mRNA relative to saline
Description: Inhibition of miR-122 leads to an increase in ALDOA expression, thus ALDOA mRNA levels can be used to measure miR-122 inhibitory activity in vivo.
(§1) Only GalNAc-conjugated compounds were tested in this assay. Compounds were administered at molar equivalents with regard to the anti-miR portion of the compound. A single, subcutaneous dose of RG-101 was administered subcutaneously at doses ranging from 0.004 to 1.116 umol/kg. Other compounds were administered in a single subcutaneous dose at doses ranging from 0.006 to 1.942 umol/kg. After 7 days the study was terminated. Liver tissue was collected for measurement of ALDOA mRNA and drug levels. Kidney tissue was collected for measurement of drug levels. Blood was collected for measurement of cholesterol.
ALDOA mRNA levels were measured, by quantitative PCR, in RNA isolated from liver. The fold change in ALDOA mRNA, relative to saline, was used to calculate an ED50 (umol/kg) for each compound (“ND” indicates “not determined), as shown in Table 4.

miR-122 [3] = experiment: Pharmacodynamic activity in liver after oral or s.c. administration (ALDOA); assay type: in vivo, mice; conditions: 30 mg/kg s.c. in PBS, single dose, four days later
Description: An experiment was performed to determine whether oral administration of RG6650 would results in pharmacodynamic modulation of miR-122 in liver. Also tested was RG7443, the unconjugated anti-miR of RG6650. While an unconjugated anti-miR-122 is not as effective as a GalNAc-conjugated for the inhibition of miR-122 in the treatment of HCV, it was included for comparison in the oral administration study.
(§2) Anti-miR compounds were delivered in PBS for subcutaneous administration. Orally administered anti-miR compounds were prepared in a solution of PBS and 0.3 M sodium bicarbonate (BC) was added to a pH of 9.5. For oral dosing, animals were fasted for 12 hours prior. For all treatment groups, mice were administered a single dose and sacrificed four days later. Liver tissue was collected for pharmacodynamic and pharmacokinetic analyses. RNA was isolated from liver and kidney. […] in the liver was measured.

HCV genotype 1a = experiment: Human chimeric liver mouse model of HCV infection, serum HCV RNA; assay type: in vivo, mice; conditions: RG6650 60 mg/kg, single administration
Description: Due to host-pathogen specificity, HCV can only infect humans and chimpanzees. As such, smaller species, such as mice, that are typically used for experimental in vivo studies cannot be infected with HCV for testing of candidate agents for the treatment of HCV infection. To address this problem, human liver chimeric mouse models may be utilized (see, e.g., Bissig et al., Proc Nat Acad Sci US A, 2007, 104:20507-20511; Bissig et al., J Clin Invest., 2010, 120: 924-930). In this model, the livers of immunodeficient mice are repopulated with human hepatocytes, resulting in a chimeric liver in which most of the hepatocytes are human hepatocytes. The mice are then infected with HCV and treated with anti-HCV agents. This mouse model is commercially available from, for example, PhoenixBio.
Anti-miR-122 compounds were tested in a human chimeric liver mouse model of HCV infection. The livers of immunodeficient mice were repopulated with human hepatocytes, resulting in a chimeric liver in which most of the hepatocytes are human hepatocytes. Six weeks following inoculation with HCV genotype 1a, a baseline viral titer was obtained for each animal included in the study.
Groups of four animals each were treated with PBS, RG-101 at a dose of 45 mg/kg, or RG6650 at a dose of 60 mg/kg. Blood was collected on Days 3, 7, 10, 14, 21, 28, 35, 42, and 49. The study was terminated on day 49.

miR-122 [4] = experiment: Free uptake in primary human hepatocyte 3D spheroids, ALDOA by RT-PCR; assay type: cell-based
HCV GT1b replicon = experiment: HCV replicon assay (Huh7 cells, luciferase reporter); assay type: cell-based, HCV genotype 1b
Description: An HCV replicon assay was used to determine the ability of anti-miR-122 compounds to inhibit the replication of HCV genotype 1b. In this assay, test compounds are introduced into Huh7 cells stably transfected with a HCV GT1b replicon containing a luciferase reporter gene. The luciferase reporter is used as an indirect measure of HCV replication. While a GalNAc-conjugated compound is expected to be preferable for treatment of HCV infection, due to the enhanced delivery to hepatocytes, some unconjugated compounds were tested.
Selected compounds were tested at nine concentrations ranging from 0.015 uM to 100 uM. GS-7977 (sofosbuvir) was included as a positive control. Cells were plated into 96-well plates at a density of 8,000 cells per well. Compound was added to the cells for a period of 72 hours. Luminescent signal in the supernatant was detected using the Bright-Glo reagent, and used to calculate the antiviral activity of each compound. The CellTiter-Fluor reagent was used to assess cell viability. The EC50 (concentration at which 50% inhibition was observed) was calculated.

MRP2 transporter = target: T1, MRP2 transporter (Homo sapiens, UniProt Q92887); experiment: In vitro MRP2 transporter assay (inside-out membrane vesicles, [3H]-estradiol-17β-glucuronide); assay type: in vitro ADME
T1 construct: expressed in transfected cells; host or cells: insect cells (transiently transfected); inside-out membrane vesicles
Description: To test the hypothesis that RG-101 was interfering with MRP2 transporter activity, an in vitro assay was performed per methods known in the art (see, for example, Vermeer et al., Drug Metab. Dispos., 2016, 44(3):453-9). In this assay, an efflux transporter-expressing vesicle is used to evaluate if a drug is a substrate or inhibitor of a transporter. Inside-out membrane vesicles are prepared from insect cells transiently transfected with a single efflux transporter, in this case MRP2. As the vesicles are in an inside-out orientation, the MRP2 transporter pumps radiolabeled substrate, [3H]-estradiol-17β-glucuronide, in an ATP-dependent manner, into the vesicles, and the accumulation of radiolabeled substrate inside the vesicle is measured. If a compound is an MRP2 transport inhibitor, the accumulation of radiolabeled substrate will be reduced relative to control samples. The inhibitory effect of the compound is evaluated by determining the IC50, the concentration resulting in 50% inhibition of transporter-mediated uptake of the radiolabeled substrate.
The in vitro MRP2 assay was performed for RG-101. Both RG-101, and RG1649, the unconjugated anti-miR of RG-101, were tested at concentrations of 0, 0.1, 0.3, 1, 3, 10, 30, and 100 uM. […] Thus, RG-101 inhibited the MPR2 transporter in this assay.
The MRP2 assay was performed for anti-miR-122 compounds selected based on potency in the HCV replicon assay and structural diversity.

cholesterol = experiment: In vivo potency: cholesterol reduction; conditions: single subcutaneous dose (doses in umol/kg), blood after 7 days
Description: as §1

IFIT = experiment: In vivo safety: liver expression of interferon-inducible gene IFIT
Description: The compounds that met the criteria for in vivo potency were also tested for safety. The capacity of a compound to trigger a pro-inflammatory response was assessed by measuring the expression of the interferon-inducible gene IFIT in the liver. Additionally, the level of ALT following administration of a compound was also measured.

[5] = Anti-miR amounts in liver tissue after oral or s.c. administration; assay type: in vivo, mice; conditions: single dose, four days later
Description: as §2

HCV = conditions: chronic treatment naïve HCV infected subjects; cited from earlier work
[6] = 72 hours, Expt #1, read-out: EC50 uM Expt #1
[7] = MRP2 transporter assay, Expt #2, read-out: IC50 uM Expt #2

T1 sequence (Q92887 whole entry): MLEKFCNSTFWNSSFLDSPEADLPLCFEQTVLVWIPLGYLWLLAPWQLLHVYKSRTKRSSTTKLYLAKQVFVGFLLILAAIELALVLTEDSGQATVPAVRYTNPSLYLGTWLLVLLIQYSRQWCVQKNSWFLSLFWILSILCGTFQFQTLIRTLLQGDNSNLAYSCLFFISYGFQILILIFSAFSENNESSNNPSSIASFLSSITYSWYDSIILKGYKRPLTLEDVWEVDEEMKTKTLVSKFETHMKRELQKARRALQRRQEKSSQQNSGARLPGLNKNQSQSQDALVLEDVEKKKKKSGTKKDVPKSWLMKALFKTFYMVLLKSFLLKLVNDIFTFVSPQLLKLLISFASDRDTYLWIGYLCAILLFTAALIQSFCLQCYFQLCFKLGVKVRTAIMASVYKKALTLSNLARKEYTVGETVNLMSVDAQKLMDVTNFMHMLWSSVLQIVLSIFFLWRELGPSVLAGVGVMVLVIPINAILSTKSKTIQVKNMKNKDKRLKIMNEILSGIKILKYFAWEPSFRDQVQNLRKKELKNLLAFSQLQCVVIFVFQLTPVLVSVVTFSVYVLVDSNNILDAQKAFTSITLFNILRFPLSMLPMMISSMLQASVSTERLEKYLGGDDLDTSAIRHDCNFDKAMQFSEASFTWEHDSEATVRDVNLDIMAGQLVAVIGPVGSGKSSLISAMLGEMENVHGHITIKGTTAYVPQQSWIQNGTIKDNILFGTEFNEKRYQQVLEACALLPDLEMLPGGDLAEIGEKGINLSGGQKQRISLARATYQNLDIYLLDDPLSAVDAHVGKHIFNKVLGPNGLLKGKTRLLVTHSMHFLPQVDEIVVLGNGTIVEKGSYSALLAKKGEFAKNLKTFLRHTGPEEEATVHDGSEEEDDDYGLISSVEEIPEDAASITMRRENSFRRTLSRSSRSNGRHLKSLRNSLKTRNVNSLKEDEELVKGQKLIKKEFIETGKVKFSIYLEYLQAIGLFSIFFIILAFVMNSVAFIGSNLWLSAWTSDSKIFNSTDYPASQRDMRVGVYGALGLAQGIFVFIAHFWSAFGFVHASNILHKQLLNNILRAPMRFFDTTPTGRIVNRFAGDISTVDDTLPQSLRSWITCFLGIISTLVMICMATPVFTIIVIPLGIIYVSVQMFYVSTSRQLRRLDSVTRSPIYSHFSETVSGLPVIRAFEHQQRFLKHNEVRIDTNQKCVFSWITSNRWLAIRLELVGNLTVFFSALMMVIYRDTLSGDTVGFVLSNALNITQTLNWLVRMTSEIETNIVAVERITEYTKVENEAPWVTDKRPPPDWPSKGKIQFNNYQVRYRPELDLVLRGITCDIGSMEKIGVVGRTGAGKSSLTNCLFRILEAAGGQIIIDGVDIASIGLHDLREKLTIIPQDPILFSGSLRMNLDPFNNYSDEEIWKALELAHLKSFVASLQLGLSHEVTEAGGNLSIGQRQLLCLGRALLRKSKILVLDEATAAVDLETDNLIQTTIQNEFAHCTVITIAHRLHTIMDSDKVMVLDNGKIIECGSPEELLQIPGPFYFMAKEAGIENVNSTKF

Molecule	EC50 (HCV GT1b replicon; [6]) [µM]	ALDOA derepression ED50 Expt #1 (miR-122 [2]) [µmol/kg]	IC50 (MRP2 transporter; [7]) [µM]	Cholesterol reduction ED50 Expt #1 (cholesterol)	other results
USCSACSACSTCSCS [RG6650]					Onset of action by ALDOA mRNA de-repression (miR-122 [1]): increased de-repression of ALDOA mRNA at a lower dose and earlier time point; ALDOA derepression ED50 Expt #2 (miR-122 [2]; Expt #2): 0.091 µmol/kg; Liver PD Sig (miR-122 [3]): 1.704; Reduction in serum HCV RNA (HCV genotype 1a): greater than 2 log; Viral titer, serum HCV RNA (HCV genotype 1a; RG-101 45 mg/kg, up to day 49, FIG. 1): significant reductions in viral titer; EC50 (miR-122 [4]; 3D PHH spheroids, three days treatment, read-out: EC50 (ALDOA levels)): 0.00207 µM; Decrease of EC50 by the GalNAc conjugate (miR-122 [4]; RG6650 compared to RG7443): ~1000 fold; EC50 (HCV GT1b replicon; 72 hours, Expt #2, read-out: EC50 uM Expt #2): 11.3 µM; IC50 (MRP2 transporter; MRP2 transporter assay, Expt #1, read-out: IC50 uM Expt #1): > 100 µM; IC50 (MRP2 transporter; assay conducted multiple times, read-out: MRP2 IC50 range over multiple studies): > 100 µM; Cholesterol reduction ED50 Expt #2 (cholesterol; Expt #2): 0.025
CC(C)OC(=O)[C@H](C)N[P@](=O)(OC[C@H]1O[C@@H](n2ccc(=O)[nH]c2=O)[C@](C)(F)[C@@H]1O)Oc1ccccc1 [GS-7977, sofosbuvir, reference compound]					EC50 (HCV GT1b replicon; Hepatitis C virus, GT1B, Huh-7, 72 hours, Expt #1, read-out: EC50 uM Expt #1): 0.149 µM; EC50 (HCV GT1b replicon; Hepatitis C virus, GT1B, Huh-7, 72 hours, Expt #2, read-out: EC50 uM Expt #2): 0.098 µM
CSASCSASCSUSCSCS [RG497998]	7.71				
CsASCSASCSUSCSCSAS [RG6370]	60.9	6.51	> 100	0.0007	Expression of IFIT in the liver (pro-inflammatory response) (IFIT): increased the expression of IFIT
USCSAS^POCS^POAS^POCS^POUSCSCS [RG6372]	> 100	0.028		0.8088	
CSASCS^POAS^POCS^POUS^POCSCSAS [RG6371]	34.1	0.086		1.116	
UsCsACsACsTCsCs [RG7443]					Liver PD Sig (miR-122 [3]): 1.945; Liver Mean (anti-miR amount) ([5]; 30 mg/kg s.c. in PBS): 1.48 µg/g; Liver Mean (anti-miR amount) ([5]; 100 mg/kg p.o. in BC): <0.4 µg/g
miravirsen					Serum HCV RNA (HCV): reduction in serum HCV RNA
USCSASCSASCSUSCSCS [RG3054]	> 100		> 100	.08152	Expression of IFIT in the liver (pro-inflammatory response) (IFIT): increased the expression of IFIT
CSASCSASCSUSCSCSAS [RG6234]	17.4		> 100		
CSASCSASCSUSCSCS [RG2634]	22.5	0.029	> 100	0.011	

Source: patent US12005120B2, “Galnac conjugated modified oligonucleotides as miR-122 inhibitor having HCV antiviral activity with reduced hyperbilirubinemia side-effect” (Regulus Therapeutics Inc., priority 2018, dated 2024)
